Assay [1] has as its target T1, human GLP-1 receptor (hGLP-1R) (Homo sapiens, UniProt P43220).
T1 construct: expressed in transfected cells
As to the kind of experiment: GLP-1 receptor assay, method A (CRE-luciferase reporter, BHK cells). The class given is cell-based. Summed up:
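hGLP-1R BHK CRE-Luc cells, thawed, in DMEM (no phenol red)/10 mM HEPES/1% ovalbumin/0.1% Pluronic F-68 ± 1% (w/v) HSA; 3 h, 37° C, 5% CO2; steadylite Plus, 30 min RT, luminescence.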
A general note: A reporter such as luciferase makes a cellular process visible.

Assay [2] has as its target T2, human amylin receptor (hAMYR3) (Homo sapiens, UniProt O60896+P30988).
T2 construct: host or cells: BHK cells (Hollex-1 line expressing hCTR(a) and CRE-Luc), further transfected with human RAMP3
As to the kind of experiment: Amylin receptor assay, method A (CRE-luciferase reporter, BHK cells). The class given is cell-based.

Assay [3] has as its system Male Sprague Dawley (SD) rats. As to the kind of experiment: Efficacy testing on appetite: acute food intake in ad libitum fed normal weight rats. Format: in vivo, rat. Conditions: single dose 10 nmol/kg; for Food intake (relative to vehicle) Day 1: day 1 [0-24 hours]; for Food intake (relative to vehicle) Day 2: day 2 [24-48 hours]; for Food intake (relative to vehicle) Day 3: day 3 [48-72 hours]. The source says:
Male Sprague Dawley (SD) rats from Taconic, Denmark were used for the acute food intake experiments, wherein the principles of laboratory animal care were followed.
The rats arrived at least 10-14 days before the start of the experiment to allow acclimatization to experimental settings. During this period, the animals were handled (fixation by restrain in neck skin) at least 2 times. Immediately upon arrival, rats were changed to a reversed light cycle (dark from 11 am-11 pm) and were transferred to an automated food intake measuring system (HM2 system, MBRose; Faaborg, Denmark). […] To enable recording of individual food intake, rats were ID chipped. Three rats were housed in each cage. During the acclimatization period, in which the rats get used to the new light cycle and diet (LF 10% (D12450B), from Research Diets Inc.), the animals had free access to food and water. Since rats are normally active and consume most of their daily calories during the dark period, rats were dosed in the morning right before lights were turned off. Such a set-up results in the lowest data variation and highest test sensitivity. […] In each cage there were animals from three different treatment groups (to eliminate potential cage effects (e.g. cage malfunction) on primary readout: food intake). The rats were dosed once subcutaneously (s.c.) with the peptide of interest according to body weight (10 or 30 nmol/kg) in vehicle (0.5 ml/kg) using a NovoPen® (Novo Nordisk, Bagsvæed, Denmark).
The compounds of the invention were formulated (20 or 60 nmol/ml) in the following vehicle: 8 mM phosphate; 250 mM glycerol; 0.007% polysorbate 20, pH 7.4.
After dosing, the rats were returned to their home cages, where they continued to have ad libitum access to chow and water. The food consumption was recorded individually and continuously by the HM2 system from 0-72 h after test compound administration. Data obtained by the HM-2 system were stored in a HMBase SQL database (Firebird® relational database management system) and were processed by HM2Lab software (MBRose; Faaborg, Denmark) installed in an embedded computer. The feeding system is a highly sensitive system with a load resolution of 0.001 g.

Setting [4] is: hGLP-1R Potency, 1% HSA, EC50, method A, in the presence of 1% HSA.
Where [5] appears, read: hAMYR3 Potency, 1% HSA, EC50, method A, in the presence of 1% HSA.
The mark [6] stands for this setting: method A, absence of HSA, read-out: hAMYR3 Potency, no HSA, EC50.
[7] abbreviates: method A, absence of HSA, read-out: hGLP-1R Potency, no HSA, EC50.

Like-named read-outs stand apart in the source and are kept apart here. Numbered stars: 1 amine (or outer) side, 2 acyl side, 3 side chain; on linkers, the order of the positions; unused ones are H or OH. Square brackets hold non-standard residues; d marks the D form. Side chains are listed from the residue outwards. * marks the point of attachment. C18 diacid = O=C(O)CCCCCCCCCCCCCCCCC(=O)*; C16 diacid = O=C(O)CCCCCCCCCCCCCCC(=O)*; γGlu = O=C(O)[C@H](CCC(=O)[*:2])N[*:1]; AEEA = NCCOCCOCC(=O)O; Aib = CC(C)(N)C(=O)O

In general, EC50 refers to the concentration needed to bring the measured effect to its halfway point.

T2 sequence (P30988 25-474): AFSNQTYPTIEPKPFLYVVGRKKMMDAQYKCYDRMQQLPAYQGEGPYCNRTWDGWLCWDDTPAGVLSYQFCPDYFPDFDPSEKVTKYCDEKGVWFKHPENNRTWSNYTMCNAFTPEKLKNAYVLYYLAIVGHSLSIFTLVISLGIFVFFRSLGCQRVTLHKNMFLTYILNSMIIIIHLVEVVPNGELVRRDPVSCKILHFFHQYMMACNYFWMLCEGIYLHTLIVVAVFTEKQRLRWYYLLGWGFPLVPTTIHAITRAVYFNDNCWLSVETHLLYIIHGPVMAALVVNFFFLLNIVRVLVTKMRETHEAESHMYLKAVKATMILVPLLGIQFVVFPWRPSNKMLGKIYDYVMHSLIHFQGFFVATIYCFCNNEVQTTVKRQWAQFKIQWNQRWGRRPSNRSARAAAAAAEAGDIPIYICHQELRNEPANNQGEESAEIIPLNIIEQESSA
T2 sequence (O60896 24-148): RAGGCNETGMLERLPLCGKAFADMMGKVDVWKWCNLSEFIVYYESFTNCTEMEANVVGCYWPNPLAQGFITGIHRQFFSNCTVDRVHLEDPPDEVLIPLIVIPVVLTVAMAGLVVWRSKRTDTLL
T1 sequence (P43220 24-463): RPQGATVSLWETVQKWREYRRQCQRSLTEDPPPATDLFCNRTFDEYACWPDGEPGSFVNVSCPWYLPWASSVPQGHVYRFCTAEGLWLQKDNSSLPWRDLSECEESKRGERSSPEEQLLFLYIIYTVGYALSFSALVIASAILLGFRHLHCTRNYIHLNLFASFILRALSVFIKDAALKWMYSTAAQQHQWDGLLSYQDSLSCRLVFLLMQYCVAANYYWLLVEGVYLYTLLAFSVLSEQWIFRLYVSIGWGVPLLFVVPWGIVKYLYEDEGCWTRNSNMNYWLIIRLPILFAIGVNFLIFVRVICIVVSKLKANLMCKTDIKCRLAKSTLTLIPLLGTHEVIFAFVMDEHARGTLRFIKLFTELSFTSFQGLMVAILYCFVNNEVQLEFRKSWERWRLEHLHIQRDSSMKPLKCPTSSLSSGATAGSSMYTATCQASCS

“H[Aib]HGTFTSDYSILLEEQAAREFIEWLLAGGPSK([AEEA-AEEA-γGlu-C16 diacid])GAPPPSGGGEASELSTAALGRLSAELHELATLPRTETGSGSP-NH2 [Compound 12]”: the EC50 in assay [1] (setting [4]) stood at 0.0102 nM. For the same substance, in assay [2] (setting [5]), the EC50 is 0.055 nM. For the same substance, the EC50 in assay [2] (setting [6]) came to 0.00623 nM. Moreover, in assay [3], the “Food intake (relative to vehicle) Day 1” value was −70%, the “Food intake (relative to vehicle) Day 2” value was −39% and the “Food intake (relative to vehicle) Day 3” value is recorded as −8%.
In the case of “H[Aib]HGTFTSDYSILLEEQAAREFIEWLLAGGPSSGAGQAPGQAPGASHLSTAQTQRLSAK([AEEA-AEEA-γGlu-C18 diacid])LHRLATLPRTETGSGSP-NH2 [Compound 78]”, the EC50 in assay [1] (setting [4]) is 0.0178 nM; in assay [1] (setting [7]) it was 0.00403 nM; in assay [2] (setting [5]) it was 0.0171 nM; in assay [2] (setting [6]), 0.00183 nM. For the same substance, the “Food intake (relative to vehicle) Day 1” value in assay [3] is recorded as −96%. Also, the “Food intake (relative to vehicle) Day 2” value in assay [3] is given as −57%. Besides, the “Food intake (relative to vehicle) Day 3” value in assay [3] is reported as −3%.
Consider “H[Aib]HGTFTSDYSILLEEQAAREFIEWLLAGGPSK([AEEA-AEEA-γGlu-C16 diacid])GAPPPSGGGEASHLSTAQTARLSAELHRLADLPRTETGSGSP-NH2 [Compound 61]”, for which the EC50 in assay [1] (setting [4]) was 0.0147 nM; in assay [1] (hGLP-1R Potency, no HSA, EC50, method A, absence of HSA), 0.00279 nM; in assay [2] (setting [5]), 0.0307 nM; in assay [2] (hAMYR3 Potency, no HSA, EC50, method A, absence of HSA), 0.00297 nM. Moreover, the “Food intake (relative to vehicle) Day 1” value in assay [3] was −86%. Also, the “Food intake (relative to vehicle) Day 2” value in assay [3] is on record as −92%. For the same substance, in assay [3], the “Food intake (relative to vehicle) Day 3” value is −34%.
Consider “H[Aib]HGTFTSDYSILLEEQAAREFIEWLLAGGPSSGEASHLSTAQTQRLSAK([AEEA-AEEA-γGlu-C18 diacid])LHRLATLPRTETGSGSP-NH2 [Compound 82]”, for which the EC50 in assay [1] (setting [4]) came out at 0.0242 nM; in assay [1] (setting [7]) it was 0.00345 nM; in assay [2] (setting [5]) it was 0.038 nM; in assay [2] (setting [6]), 0.00326 nM. In addition, the “Food intake (relative to vehicle) Day 1” value in assay [3] is recorded as −94%. Moreover, the “Food intake (relative to vehicle) Day 2” value in assay [3] was −73%. In assay [3], the “Food intake (relative to vehicle) Day 3” value is reported as −27%.
Regarding “H[Aib]HGTFTSDYSILLEEQAAREFIEWLLAGGPSSGEASHLSTAALGRLSAELHRLK([AEEA-AEEA-γGlu-C18 diacid])TLPRTETGSGSP-NH2 [Compound 89]”, the EC50 in assay [1] (setting [4]) is 0.0295 nM; in assay [1] (setting [7]), 0.00386 nM; in assay [2] (setting [5]) it was 0.0397 nM; in assay [2] (setting [6]), 0.00312 nM. Besides, in assay [3], the “Food intake (relative to vehicle) Day 1” value is reported as −93%. Further, the “Food intake (relative to vehicle) Day 2” value in assay [3] was −78%. Further, in assay [3], the “Food intake (relative to vehicle) Day 3” value was −28%.
In the case of “H[Aib]HGTFTSDYSILLEEQAAREFIEWLLAGGPSK([AEEA-AEEA-γGlu-C18 diacid])GEASHLSTAQTARLSAELHELATLPRTETGSGSP-NH2 [Compound 36]”, the EC50 in assay [1] (setting [4]) was found to be 0.208 nM; in assay [1] (setting [7]), 0.00319 nM; in assay [2] (setting [5]), 0.137 nM; in assay [2] (setting [6]), 0.00384 nM. Moreover, the “Food intake (relative to vehicle) Day 1” value in assay [3] was −44%. Further, the “Food intake (relative to vehicle) Day 2” value in assay [3] is −45%. The “Food intake (relative to vehicle) Day 3” value in assay [3] is recorded as −3%.
As to “Y[Aib]EGTFTSDYSILLEEQAAREFIEWLLAGGPSSGEASHLSTAQTQRLSAELHK([AEEA-AEEA-γGlu-C18 diacid])LATLPRTETGSGSP-NH2 [Compound 50]”, the EC50 is 0.0663 nM in assay [1] (setting [4]), 0.0162 nM in assay [1] (setting [7]), 0.185 nM in assay [2] (setting [5]) and 0.0032 nM in assay [2] (setting [6]). For the same substance, in assay [3], the “Food intake (relative to vehicle) Day 1” value is given as −54%. Besides, the “Food intake (relative to vehicle) Day 2” value in assay [3] was −60%. The “Food intake (relative to vehicle) Day 3” value in assay [3] is on record as −21%.
As for “H[Aib]HGTFTSDYSILLEEQAAREFIEWLLAGGPSK([AEEA-AEEA-γGlu-C18 diacid])GAPPPSGGGGASELSTAALGRLSAELHRLATLPRTETGSGSP-NH2 [Compound 14]”, the EC50 in assay [1] (setting [4]) was 0.0759 nM; in assay [1] (setting [7]), 0.00205 nM; in assay [2] (setting [5]) it was 0.0334 nM; in assay [2] (setting [6]), 0.00221 nM. Moreover, in assay [3], the “Food intake (relative to vehicle) Day 1” value was −78%. Further, the “Food intake (relative to vehicle) Day 2” value in assay [3] was −85%. In assay [3], the “Food intake (relative to vehicle) Day 3” value is −32%.
